# According to article PMC10408569, “Recruitment of hexahydroquinoline as anticancer scaffold targeting inhibition of wild and mutants EGFR (EGFR^WT, EGFR^T790M, and EGFR^L858R)” (Journal of Enzyme Inhibition and Medicinal Chemistry, 2023):
# Experiments:
# CCRF-CEM = assay: NCI-60 anticancer screening (SRB); type: cell-based; conditions: Homo sapiens
# HL-60(TB) = assay: NCI-60 anticancer screening (SRB); type: cell-based; conditions: Homo sapiens
# K-562 = assay: NCI-60 anticancer screening (SRB); type: cell-based; conditions: Homo sapiens, K562
# SR = assay: NCI-60 anticancer screening (SRB); type: cell-based; conditions: Homo sapiens
# NCI-H226 = assay: NCI-60 anticancer screening (SRB); type: cell-based; conditions: Homo sapiens
# NCI-H322M = assay: NCI-60 anticancer screening (SRB); type: cell-based; conditions: Homo sapiens
# COLO 205 = assay: NCI-60 anticancer screening (SRB); type: cell-based; conditions: Homo sapiens
# HCT-116 = assay: NCI-60 anticancer screening (SRB); type: cell-based; conditions: Homo sapiens
# HCT-15 = assay: NCI-60 anticancer screening (SRB); type: cell-based; conditions: Homo sapiens
# KM 12 = assay: NCI-60 anticancer screening (SRB); type: cell-based; conditions: Homo sapiens, KM12
# SW-620 = assay: NCI-60 anticancer screening (SRB); type: cell-based; conditions: Homo sapiens
# SF-268 = assay: NCI-60 anticancer screening (SRB); type: cell-based; conditions: Homo sapiens
# SNB-75 = assay: NCI-60 anticancer screening (SRB); type: cell-based; conditions: Homo sapiens
# U251 = assay: NCI-60 anticancer screening (SRB); type: cell-based; conditions: Homo sapiens, U-251
# LOX IMVI = assay: NCI-60 anticancer screening (SRB); type: cell-based; conditions: Homo sapiens
# M14 = assay: NCI-60 anticancer screening (SRB); type: cell-based; conditions: Homo sapiens
# SK-MEL-2 = assay: NCI-60 anticancer screening (SRB); type: cell-based; conditions: Homo sapiens
# UACC-257 = assay: NCI-60 anticancer screening (SRB); type: cell-based; conditions: Homo sapiens
# IGROV1 = assay: NCI-60 anticancer screening (SRB); type: cell-based; conditions: Homo sapiens, IGROV-1
# OVCAR-5 = assay: NCI-60 anticancer screening (SRB); type: cell-based; conditions: Homo sapiens
# NCI/ADR-RES = assay: NCI-60 anticancer screening (SRB); type: cell-based; conditions: Homo sapiens, ovarian cancer, one dose 10 μM, read-out: Growth Inhibition Percentage (GI %)
# SK-OV-3 = assay: NCI-60 anticancer screening (SRB); type: cell-based; conditions: Homo sapiens
# 786-0 = assay: NCI-60 anticancer screening (SRB); type: cell-based; conditions: Homo sapiens
# A498 = assay: NCI-60 anticancer screening (SRB); type: cell-based; conditions: Homo sapiens
# RXF 393 = assay: NCI-60 anticancer screening (SRB); type: cell-based; conditions: Homo sapiens
# TK-10 = assay: NCI-60 anticancer screening (SRB); type: cell-based; conditions: Homo sapiens
# PC-3 = assay: NCI-60 anticancer screening (SRB); type: cell-based; conditions: Homo sapiens
# MCF7 = assay: NCI-60 anticancer screening (SRB); type: cell-based; conditions: Homo sapiens
# MDA-MB-231 = assay: NCI-60 anticancer screening (SRB); type: cell-based; conditions: Homo sapiens
# BT-549 = assay: NCI-60 anticancer screening (SRB); type: cell-based; conditions: Homo sapiens
# T-47D = assay: NCI-60 anticancer screening (SRB); type: cell-based; conditions: Homo sapiens, T47D
# MDA-MB-468 = assay: NCI-60 anticancer screening (SRB); type: cell-based; conditions: Homo sapiens
# NCI 60 cancer cell lines = assay: NCI-60 anticancer screening (SRB), whole panel; type: cell-based, human
# [1] = leukemia, one dose 10 μM, read-out: Growth Inhibition Percentage (GI %)
smiles,measurement,setting,value
"CCOC(=O)C1=C(N)N(c2ccccc2)C2=C(C(=O)CC(C)(C)C2)C1c1ccc(Cl)cc1Cl (racemic) [10c, (±)-Ethyl 2-amino-4–(2,4-dichlorophenyl)-7,7-dimethyl-5-oxo-1-phenyl-1,4,5,6,7,8-hexahydroquinoline-3-carboxylate]",GI50,"CCRF-CEM; five doses 0.01-100 µM, 48 h",3.1 µM
same,inhibition at 10 µM,CCRF-CEM; [1],80%
same,GI50,"HL-60(TB); five doses 0.01-100 µM, 48 h",5.95 µM
same,inhibition at 10 µM,HL-60(TB); [1],99%
same,inhibition at 10 µM,"K-562; K-562, leukemia, one dose 10 μM, read-out: Growth Inhibition Percentage (GI %)",87%
same,GI50,"K-562; K-562, five doses 0.01-100 µM, 48 h",7.23 µM
same,GI50,"SR; five doses 0.01-100 µM, 48 h",1.47 µM
same,inhibition at 10 µM,SR; [1],90%
same,inhibition at 10 µM,"NCI-H226; NCI-H226, NSC lung cancer, one dose 10 μM, read-out: Growth Inhibition Percentage (GI %)",76%
same,GI50,"NCI-H226; NCI-H226, five doses 0.01-100 µM, 48 h",2.34 µM
same,GI50,"NCI-H322M; NCI-H322-M, five doses 0.01-100 µM, 48 h",7.71 µM
same,inhibition at 10 µM,"NCI-H322M; NSC lung cancer, one dose 10 μM, read-out: Growth Inhibition Percentage (GI %)",43%
same,inhibition at 10 µM,"COLO 205; COLO 205, colon cancer, one dose 10 μM, read-out: Growth Inhibition Percentage (GI %)",91%
same,GI50,"COLO 205; COLO-205, five doses 0.01-100 µM, 48 h",2.06 µM
same,inhibition at 10 µM,"HCT-116; HCT-116, colon cancer, one dose 10 μM, read-out: Growth Inhibition Percentage (GI %)",86%
same,GI50,"HCT-116; HCT-116, five doses 0.01-100 µM, 48 h",7.89 µM
same,inhibition at 10 µM,"HCT-15; HCT-15, colon cancer, one dose 10 μM, read-out: Growth Inhibition Percentage (GI %)",86%
same,GI50,"HCT-15; HCT-15, five doses 0.01-100 µM, 48 h",1.52 µM
same,inhibition at 10 µM,"KM 12; KM 12, colon cancer, one dose 10 μM, read-out: Growth Inhibition Percentage (GI %)",81%
same,GI50,"KM 12; KM-12, five doses 0.01-100 µM, 48 h",2.36 µM
same,inhibition at 10 µM,"SW-620; SW-620, colon cancer, one dose 10 μM, read-out: Growth Inhibition Percentage (GI %)",< 10%
same,GI50,"SW-620; SW-620, five doses 0.01-100 µM, 48 h",2.9 µM
same,inhibition at 10 µM,"SF-268; SF-268, CNS cancer, one dose 10 μM, read-out: Growth Inhibition Percentage (GI %)",48%
same,GI50,"SF-268; SF-268, five doses 0.01-100 µM, 48 h",5.32 µM
same,inhibition at 10 µM,"SNB-75; SNB-75, CNS cancer, one dose 10 μM, read-out: Growth Inhibition Percentage (GI %)",59%
same,GI50,"SNB-75; SNB-75, five doses 0.01-100 µM, 48 h",5.33 µM
same,inhibition at 10 µM,"U251; U251, CNS cancer, one dose 10 μM, read-out: Growth Inhibition Percentage (GI %)",72%
same,GI50,"U251; U251, five doses 0.01-100 µM, 48 h",2.46 µM
same,GI50,"LOX IMVI; five doses 0.01-100 µM, 48 h",3.24 µM
same,inhibition at 10 µM,"LOX IMVI; melanoma, one dose 10 μM, read-out: Growth Inhibition Percentage (GI %)",< 10%
same,inhibition at 10 µM,"M14; M14, melanoma, one dose 10 μM, read-out: Growth Inhibition Percentage (GI %)",59%
same,GI50,"M14; M14, five doses 0.01-100 µM, 48 h",3.48 µM
same,inhibition at 10 µM,"SK-MEL-2; SK-MEL-2, melanoma, one dose 10 μM, read-out: Growth Inhibition Percentage (GI %)",112%
same,GI50,"SK-MEL-2; SK-MEL-2, five doses 0.01-100 µM, 48 h",1.7 µM
same,inhibition at 10 µM,"UACC-257; UACC-257, melanoma, one dose 10 μM, read-out: Growth Inhibition Percentage (GI %)",65%
same,GI50,"UACC-257; UACC-257, five doses 0.01-100 µM, 48 h",2.88 µM
same,inhibition at 10 µM,"IGROV1; IGROV1, ovarian cancer, one dose 10 μM, read-out: Growth Inhibition Percentage (GI %)",41%
same,GI50,"IGROV1; IGROV1, five doses 0.01-100 µM, 48 h",7.97 µM
same,inhibition at 10 µM,"OVCAR-5; OVCAR-5, ovarian cancer, one dose 10 μM, read-out: Growth Inhibition Percentage (GI %)",43%
same,GI50,"OVCAR-5; OVCAR-5, five doses 0.01-100 µM, 48 h",7.26 µM
same,inhibition at 10 µM,NCI/ADR-RES,76%
same,inhibition at 10 µM,"SK-OV-3; SK-OV-3, ovarian cancer, one dose 10 μM, read-out: Growth Inhibition Percentage (GI %)",66%
same,GI50,"SK-OV-3; SK-OV-3, five doses 0.01-100 µM, 48 h",3.35 µM
same,inhibition at 10 µM,"786-0; 786-0, renal cancer, one dose 10 μM, read-out: Growth Inhibition Percentage (GI %)",66%
same,GI50,"786-0; 786-0, five doses 0.01-100 µM, 48 h",4.24 µM
same,inhibition at 10 µM,"A498; A498, renal cancer, one dose 10 μM, read-out: Growth Inhibition Percentage (GI %)",53%
same,GI50,"A498; A498, five doses 0.01-100 µM, 48 h",4.54 µM
same,inhibition at 10 µM,"RXF 393; RXF 393, renal cancer, one dose 10 μM, read-out: Growth Inhibition Percentage (GI %)",79%
same,GI50,"RXF 393; RXF 393, five doses 0.01-100 µM, 48 h",1.38 µM
same,inhibition at 10 µM,"TK-10; TK-10, renal cancer, one dose 10 μM, read-out: Growth Inhibition Percentage (GI %)",63%
same,GI50,"TK-10; TK-10, five doses 0.01-100 µM, 48 h",5.63 µM
same,inhibition at 10 µM,"PC-3; PC-3, prostate cancer, one dose 10 μM, read-out: Growth Inhibition Percentage (GI %)",90%
same,GI50,"PC-3; PC-3, five doses 0.01-100 µM, 48 h",4.14 µM
same,inhibition at 10 µM,"MCF7; MCF7, breast cancer, one dose 10 μM, read-out: Growth Inhibition Percentage (GI %)",91%
same,GI50,"MCF7; MCF7, five doses 0.01-100 µM, 48 h",1.77 µM
same,inhibition at 10 µM,"MDA-MB-231; MDA-MB-231, breast cancer, one dose 10 μM, read-out: Growth Inhibition Percentage (GI %)",75%
same,GI50,"MDA-MB-231; MDA-MB-231, five doses 0.01-100 µM, 48 h",3.34 µM
same,inhibition at 10 µM,"BT-549; BT-549, breast cancer, one dose 10 μM, read-out: Growth Inhibition Percentage (GI %)",67%
same,GI50,"BT-549; BT-549, five doses 0.01-100 µM, 48 h",4.58 µM
same,inhibition at 10 µM,"T-47D; breast cancer, one dose 10 μM, read-out: Growth Inhibition Percentage (GI %)",79%
same,GI50,"T-47D; five doses 0.01-100 µM, 48 h",1.04 µM
same,inhibition at 10 µM,"MDA-MB-468; MDA-MB-468, breast cancer, one dose 10 μM, read-out: Growth Inhibition Percentage (GI %)",96%
same,GI50,"MDA-MB-468; MDA-MB-468, five doses 0.01-100 µM, 48 h",6.83 µM
same,LC50 (50% lethal concentration),"NCI 60 cancer cell lines; Homo sapiens, 60 cell, five doses, read-out: LC50 values towards 60 cell lines",> 100 µM
same,GI50,"NCI 60 cancer cell lines; Homo sapiens, five doses 0.01-100 µM, 48 h, read-out: GI50 range against nearly all the tested cell lines",1.04 to 9.56 µM
same,GI % mean,"NCI 60 cancer cell lines; mean across the NCI-60 panel, one dose 10 μM",74%
